Experimental data taken from US10450317B2, “Notch pathway signaling inhibitor compounds” (Eli Lilly and Company, priority 2015, dated 2019).
“And” between values parts separate entries of the source, which are not always exact repeats. Equal values may be shown once. Values belong to the molecule of their own block, whether it stands above or below them.

Key:
cleaved Notch1 (N1ICD) = experiment: In-vivo target inhibition study, cleaved N1ICD in lung by ELISA; parameters: species or system Balb/C mice; conditions: mouse lung
Method: To evaluate in vivo effect of Compound 1, Isomer 2 and. Compound 2, Isomer 2 on inhibition of Notch processing pharmacodynamics (PD), animal studies were conducted in non-tumor bearing Balb/C mice (Charles River). A total of 5 mice are used for each group. Mice are fed ad libitum on normal chow. Treatment is initiated with oral administration (gavage) of compound or vehicle (1% Na-CMC in 0.25% Tween-80) in 0.2 mL volume. At designated time points (4 or 8 hours after the dose) following treatment, animals are sacrificed by CO2 asphyxiation and cervical dislocation. Tissues (Lungs) are removed and used for PD response analysis as measured by cleaved N1ICD.
To evaluate N1ICD levels in lung, approximately 75 mg is cut from the frozen tissue and minced prior to homogenization (actual mass recorded). […] are transferred to Lysing Matrix-D™ tubes and re-suspended in ice-cold XY lysis buffer (25 mM Tris pH 7.5, 10 μg/ml Trypsin/Chymotrypsin inhibitor, 10 μg/ml Aprotinin, 60 mM Beta-glycerol phosphate, 1% Triton® X-100, 10 mM NaF, 2.5 mM pyrophosphate, 150 mM NaCl, 15 mM ethylene diamine tetra acetic acid (EDTA) pH 8.0, 5 mM ethylene glycol-bis(2-aminoethylether)-N,N,N′,N′-tetra acetic acid (EGTA) pH 8.0, 1 mM Na Vanadate, 10 μg/ml Leupeptin, 1 mM dithiothreitol, 1 μM microcystin LR, 10 μg/ml N-p-tosyl-L-phenylalanine chloromethyl ketone (TPCK), 2 mM Nα-p-tosyl-L-arginine methyl ester hydrochloride (TAME), 15 mM 4-nitrophenyl phosphate di(tris) salt (PNPP), 0.1 mM 4-(2-aminoethyl) benzenesulfonyl fluoride hydrochloride (AEBSF), 5 mM benzamidine, 1 μM Okadaic Acid) containing 1× Complete tablet (Roche Complete™ No. 11697 498 001) and 1× Protease Inhibitor cocktail (Sigma-Aldrich P8340) at a mass: volume ratio of 75 mg/ml buffer. Tissues are homogenized in a Fast Prep FP120 homogenizer (Thermo Scientific, Rockford, Ill.) at a speed of 6.0 for 30 seconds at 4° C., followed by 15 minute incubation on ice. This is repeated for a total of 2-3 cycles until homogenization is complete. Lysates are spun in a 4° C. eppendorf centrifuge at 30,000 rpm for 15 minutes to remove debris. 400 μl of supernatant is removed and transferred to a new eppendorf tube and subjected to a freeze/thaw cycle. Samples are re-spun in a 4° C. eppendorf centrifuge at 30,000 rpm for 30 minutes and 120 μl of supernatant is collected for analysis. Total protein concentration is determined using Pierce BCA Protein Assay Kit™ (Thermo Scientific, Rockford, Ill.) using a Thermomax™ plate reader (Molecular Devices, Sunnyvale, Calif.). N1ICD levels are determined using a custom N1ICD ELISA. Analyte is captured with a cleaved Notch1 (Val1744)-specific custom rabbit monoclonal antibody and detected with a C-terminal Notch1 SULFO-TAG™ (Meso Scale Discovery, Gaithersburg, Md.) polyclonal sheep antibody (R&D Systems, Minneapolis, Minn.). Lysates are diluted to 2 μg/μl in ice-cold ELISA tris lysis buffer (R6OTX) (Meso Scale Discovery, Gaithersburg, Md.) containing 1× Complete tablet (Roche Complete™ mini No. 11 836 153 001) and 1× Protease Inhibitor cocktail (Sigma-Aldrich P8340), and 25 μl is added to the ELISA plate. Incubation of 50 μg protein lysate is done at RT for one hour each to capture analyte and with detection antibody. Plates are read on a Sector Imager 6000™ (Meso Scale Discovery, Gaithersburg, Md.). Background subtracted N1ICD is normalized to total protein and presented as % inhibition relative to the vehicle-treated group. N1ICD % inhibition and statistical significance (p value) as measured by Dunett's method in tumors harvested 4 hours after last dose for Compound 1, Isomer 2 or Compound 2, Isomer 2 is analyzed essentially as described above and summarized in Table 1.

mouse Notch1 = experiment: Notch1 N1ICD nuclear accumulation cellular imaging assay; type: cell-based; conditions: HEK293ΔE12 cells, 24 hours treatment, n=2; read-out: average IC50 for the nuclear N1ICD signal
Method: HEK293ΔE12 cells (HEK293 cells are engineered to stably express mouse Notch1 cDNA coding for amino acid 1703-2183, Np_932740.3, (Full length mouse Notch 1 protein precursor: SEQ ID NO:1) with 23 amino acid signal peptide sequence, […] (SEQ ID NO:2), at its N-terminus) are plated at 5000 cells/well in 96 well plates, incubated in Dulbecco's Modified. Eagle's Medium (DMEM)-high glucose with 5% fetal bovine serum (FBS) at 37° C., 5% CO2 for 24 hours. Cells are treated with test compound, dosing at 10 points of 1:3 dilutions across the range of 1000 nM to 0.05 nM, and with final dimethyl sulfoxide (DMSO) concentration at 0.2%. […] Plates are scanned with ACUMEN EXPLORER™ Laser-scanning fluorescence microplate cytometer (TTP LABTECH LTD) to measure total cell nuclear count/well and total nuclear area/well with fluorescence at 655 nm-705 nm (emission of DNA bound propidium iodide) and fluorescence of antibody binding to N1ICD in nuclear region at 505 nm-530 nm. The main assay output is a ratio of total fluorescence of nuclear N1ICD to total nuclear area, the normalized nuclear N1ICD signal. […] Concentration response and the IC50 are determined by curve fitting to a four parameter logistic for the nuclear N1ICD signal, while the % cell number is plotted in the same graph for cytotoxicity profiling.

[1] = oral 10 mg/kg, 4 hours following treatment

IC50 (mouse Notch1): 1.55 nM
SMILES: C[C@H](NC(=O)CCC(F)(F)F)C(=O)NC1C(=O)C=C2N(CCC2(C)C)c2ncccc21 (single isomer, unassigned) [Compound 2, Isomer 2]
% N1ICD inhibition (Ave ± SD; n = 1) (cleaved Notch1 (N1ICD); [1]): 65 ± 11% | % N1ICD inhibition (Ave ± SD; n = 1) (cleaved Notch1 (N1ICD); oral 10 mg/kg, 8 hours following treatment): 15 ± 14%

IC50 (mouse Notch1): 0.37 nM
SMILES: COc1ccc2c(c1)N1CCC(C)(C)C1=CC(=O)C2NC(=O)[C@H](C)NC(=O)CCC(F)(F)F (single isomer, unassigned) [Compound 1, Isomer 2]
% N1ICD inhibition (Ave ± SD; n = 1) (cleaved Notch1 (N1ICD); oral 0.3 mg/kg, 8 hours following treatment): −7 ± 26% | % N1ICD inhibition (Ave ± SD; n = 1) (cleaved Notch1 (N1ICD); oral 1 mg/kg, 8 hours following treatment): 6 ± 15% | % N1ICD inhibition (Ave ± SD; n = 1) (cleaved Notch1 (N1ICD); oral 3 mg/kg, 8 hours following treatment): 11 ± 13% | % N1ICD inhibition (Ave ± SD; n = 1) (cleaved Notch1 (N1ICD); [1]): 70 ± 12% | % N1ICD inhibition (Ave ± SD; n = 1) (cleaved Notch1 (N1ICD); oral 10 mg/kg, 8 hours following treatment, listed as 1, Isomer 2, 10 mg/kg): 52 ± 31% and 65 ± 11% | % N1ICD inhibition (Ave ± SD; n = 1) (cleaved Notch1 (N1ICD); oral 30 mg/kg, 8 hours following treatment): 87 ± 3% | % N1ICD inhibition (Ave ± SD; n = 1) (cleaved Notch1 (N1ICD); oral 100 mg/kg, 8 hours following treatment): 92 ± 3%
